Assay [1] deals with T1, FXIIa (Homo sapiens, UniProt P00748). To be noted: reference protein inhibitor against FXIIa; cited from earlier work.
Assay [2] has as its target T2, interferon γ receptor 1 (IFNGR1) (Homo sapiens, UniProt P15260). Description: biochemical. To be noted: read-out: ka.
Assay [3] deals with T2, interferon γ receptor 1 (IFNGR1). To be noted: SPR, 25° C., 1:1 interaction model.
In assay [4] the target is human factor XIIa (FXIIa) (Homo sapiens, UniProt P00748). Nature of the assay: biochemical.
The target in assay [5] is T1, FXIIa. Description: biochemical.
Assay [6] deals with T3, human factor XIIa (activated blood coagulation factor XII) (human, UniProt P00748 20-615, limits assumed, biotinylated (site not stated)).
T3 construct: The construct used for SPR, for the Ki assay and for the cocrystal is not described; The same entry is used for all three; also called FXIIa; FXIIA
T3 sequence (looked up): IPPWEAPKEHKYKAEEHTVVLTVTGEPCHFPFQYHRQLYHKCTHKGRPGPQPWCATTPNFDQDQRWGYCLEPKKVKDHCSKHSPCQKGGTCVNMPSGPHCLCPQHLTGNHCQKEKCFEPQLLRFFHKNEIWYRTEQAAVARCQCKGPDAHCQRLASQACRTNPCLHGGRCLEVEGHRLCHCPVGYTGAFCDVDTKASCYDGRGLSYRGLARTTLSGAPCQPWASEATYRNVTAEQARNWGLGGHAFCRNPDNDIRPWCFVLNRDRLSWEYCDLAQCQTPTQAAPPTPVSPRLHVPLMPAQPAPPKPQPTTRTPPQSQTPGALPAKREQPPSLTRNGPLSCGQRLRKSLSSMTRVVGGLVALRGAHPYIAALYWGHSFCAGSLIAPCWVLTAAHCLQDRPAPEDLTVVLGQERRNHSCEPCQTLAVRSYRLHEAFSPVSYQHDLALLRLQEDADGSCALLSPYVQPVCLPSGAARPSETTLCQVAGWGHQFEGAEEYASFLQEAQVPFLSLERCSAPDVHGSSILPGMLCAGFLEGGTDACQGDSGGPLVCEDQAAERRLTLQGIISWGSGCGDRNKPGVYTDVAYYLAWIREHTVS
Description: SPR, Biacore T200, 25 C, single cycle kinetics, 1:1 model.

Assay [7] concerns the target T3, human factor XIIa (activated blood …). Description: inhibition of FXIIa cleavage of the chromogenic substrate S-2302 (H-D-Pro-Phe-Arg-pNA), absorbance at 405 nm.
Assay [8] shares this target. Nature of the assay: SPR, Biacore T200, 25 C, single cycle kinetics, 1:1 model; peptide F2A (drawing CHEM-US-00044, read number 0), control variant of F2.

Read-outs that look alike come from different tables or passages of the source. Starred links: 1 amine or outer side, 2 acyl side, 3 side chain; linkers in the order of their positions; H or OH if unused. Positions of bridges follow the written chain, without caps; N, C: chain ends. Non-standard residues stand in square brackets, D forms with d. Residues, ends and D or L forms follow the SMILES beside them. No end group written: not given here. ACHC(1S,2S) = O=C([C@H]1CCCC[C@@H]1N[*:1])[*:2]

In the case of corn trypsin inhibitor [CTI], on FXIIa [1], the Ki was 24 nM.
Consider `CC(C)[C@@H]1NC(=O)CNC(=O)[C@H](Cc2ccccc2)NC(=O)[C@@H](Cc2ccc(O)cc2)NC(=O)CSC[C@H](C(N)=O)NC(=O)[C@H]([C@@H](C)O)NC(=O)[C@H](CCCNC(=N)N)NC(=O)[C@H](CC(N)=O)NC(=O)[C@H](Cc2ccc(O)cc2)NC(=O)[C@H](Cc2ccccc2)NC(=O)[C@H](C)NC(=O)[C@H](CCCNC(=N)N)NC1=O` [I1-1A] ({CH2CO}-[dY]FGVRAFYNRT[dC]-NH2; thioether N-12), for which, in assay [2], the kon stood at 20000 M⁻¹ s⁻¹. In assay [3], the kd was 4.12 10^−2 · s^−1.
`CC(C)C[C@@H]1NC(=O)[C@H](CCCNC(=N)N)NC(=O)[C@H](CC(N)=O)NC(=O)[C@H]2CCCC[C@@H]2NC(=O)[C@H]([C@@H](C)O)NC(=O)[C@H](Cc2ccc(O)cc2)NC(=O)[C@H](CCCNC(=N)N)NC(=O)[C@@H](Cc2ccc(O)cc2)NC(=O)CSC[C@H](C(=O)NCC(N)=O)NC(=O)[C@H](C)NC(=O)[C@H](CC(N)=O)NC(=O)[C@H]2CCCC[C@@H]2NC(=O)[C@H](Cc2ccccc2)NC1=O` [F4] ({CH2CO}-[dY]RYT[ACHC(1S,2S)]NRLF[ACHC(1S,2S)]NA[dC]G-NH2; thioether N-13) registered a Kd in assay [4] of 15.5 nM. Also, in assay [4] (read-out: ka), the kon is 550000 M⁻¹ s⁻¹. Moreover, on FXIIa [5], the Ki came out at 4.32 nM.

B1: F3 (peptide)
peptide: {CH2CO}-[dY]FAYDRR[ACHC(1S,2S)]LSNN[ACHC(1S,2S)]RNY[dC]
modifications: thioether N-17
notes: Made by solid-phase synthesis with the C-terminal TGTGT linker omitted; The formula f3 in the summary and claims ends in RNT; also called yFAYDRR1LSNN1RNYc
Turning to B1, in assay [6], the Kd stood at 0.98 nM and the koff amounted to 0.0016 s⁻¹. Affinity in assay [7] was put at a Ki of 1.02 nM.

B2: F2A (peptide)
peptide: {CH2CO}-[dY]PRLFNASYLRR[dC]
modifications: thioether N-13
notes: also called negative control peptide of F2
Molecule B2 came in with a koff in assay [6] of 0.438 s⁻¹. Further, in assay [8], the Kd turned out to be 92.2 nM.

Source of the values: patent US20230117920A1, “Library Construction Method, Cyclic Peptide, FXIIa Binder and IFNGR1 Binder” (The University of Tokyo, priority 2019, published 2023).
